Key:
DBA/2 mice = test: In vivo anticonvulsant activity in the DBA/2 mouse model (mouse audiogenic assay); conditions: vs vehicle controls, HCl salt form
Protocol: As discussed above, preferred compounds of the invention in a standard anticonvulsant in vivo audiogenic test, such as the audiogenic mouse assay of Example 11 which follows, where DBA/2 mice about 20–23 days old are injected intraperitoneally with a test compound 30 minutes prior to being placed in a bell jar with exposure to auditory stimulus of 12 KHz sine wave at 110–120 db. References herein in vivo “audiogenic assay” are intended to refer to that protocol. […] As discussed above, activity in the audiogenic assay has been recognized as indicative that a test compound has neuroprotective properties. See, e.g., M. Tricklebank et al., European Journal of Pharmacology, supra; T. Seyfried, Federation Proceedings, supra.
Compounds were tested for their effectiveness in preventing seizures in DBA/2 mice which have a unique sensitivity to auditory stimulation. Exposure to loud high-frequency sounds can trigger seizure activity in these animals. This sensitivity develops from postnatal day 12 and peaks around day 21 and slowly diminishes as the animals mature. The unusual response to auditory stimulation in this strain of mouse is believed to be due to a combination of early myelination (causing an unusually low excitatory threshold) and delayed development of inhibitory mechanisms.
Mice were injected intraperitoneally with the compound specified in Table I below or with vehicle control, 30 minutes prior to being placed in a bell jar and turning on the auditory stimulus (12 KHz sine wave at 110–120 db). Administered doses are specified in Table I as milligram of compound per kilogram bodyweight of mouse. The auditory stimulus was left on for 60 seconds and mice reactions were timed and recorded. Percentage inhibition was determined with reference to vehicle controls. All compounds were tested in HCl salt form.

in vivo models of stroke = conditions: variety of in vivo models of stroke; cited from earlier work
mouse = conditions: recognized model for evaluation of neuroprotective drugs; cited from earlier work
[1] = in vivo; cited from earlier work
[2] = dose 20 mg/kg intraperitoneally 30 minutes prior to auditory stimulus (12 KHz, 110–120 db)

| SMILES | melting point [°C] | Audiogenic Response % Inhib. (DBA/2 mice; [2]) [%] | also measured |
| --- | --- | --- | --- |
| COc1ccc(C(=O)/N=C(\N)NCCCCc2ccccc2)cc1.Cl [N-(4-methoxybenzoyl)-N′-(4-phenylbutyl)guanidine, hydrochloride] | 172 to 174 | 42 | – |
| C[C@]12N[C@H](Cc3ccccc31)c1ccccc12 [MK-801] | – | – | results in in vivo models of stroke (in vivo models of stroke): good results; activity in mouse audiogenic tests (mouse): good activity; toxicity [1]: has shown toxicity |
| Cc1ccc(C(=O)/N=C(\N)Nc2ccc(C(C)C)cc2)cc1.Cl [N-(4-methylbenzoyl)-N′-(4-isopropylphenyl)guanidine, hydrochloride] | – | 30 | – |
| Cl.N/C(=N\C(=O)c1cccs1)NCCc1ccccc1 | 198 to 200 | – | – |
| CCOc1ccc(NC(=N)NCCCCc2ccccc2)cc1 [N-(4-ethoxyphenyl)-N′-(4-phenylbutyl)guanidine] | – | 60 | – |
| Cc1ccc(C(=O)/N=C(\N)NCCCCc2ccccc2)cc1.Cl [N-(4-methylbenzoyl)-N′-(4-phenylbutyl)guanidine, hydrochloride] | – | 75 | Audiogenic Response % Inhib. (DBA/2 mice; dose 10 mg/kg intraperitoneally 30 minutes prior to auditory stimulus (12 KHz, 110–120 db)): 16% |
| CCCCOc1ccc(C(=O)/N=C(\N)NCCc2c[nH]c3ccccc23)cc1.Cl | 158 to 162 | – | – |
| CCCCOc1ccc(NC(=N)NCCCCc2ccccc2)cc1 [N-(4-butoxyphenyl)-N′-(4-phenylbutyl)guanidine] | – | 97 | – |
| COc1ccc(NC(=N)Nc2ccc(C(C)C)cc2)cc1 [N-(4-methoxyphenyl)-N′-(4-isopropylphenyl)guanidine] | – | 56 | – |

— US7041702B1, “Pharmaceutically active compounds and methods of use” (Scion Pharmaceuticals, Inc., priority 1997, dated 2006)
